Test results reported in patent US8697700B2, “Piperazinone-substituted tetrahydro-carboline MCH-1 antagonists, methods of making, and uses thereof” (Albany Molecular Research, Inc., priority 2010, dated 2014).
Where a name gives a salt, the structure may show the parent alone.

Biological target: T1, human MCH-1 receptor (Homo sapiens, UniProt Q99705)
T1 construct: purchased Euroscreen Batch 1138
T1 sequence (Q99705 whole entry): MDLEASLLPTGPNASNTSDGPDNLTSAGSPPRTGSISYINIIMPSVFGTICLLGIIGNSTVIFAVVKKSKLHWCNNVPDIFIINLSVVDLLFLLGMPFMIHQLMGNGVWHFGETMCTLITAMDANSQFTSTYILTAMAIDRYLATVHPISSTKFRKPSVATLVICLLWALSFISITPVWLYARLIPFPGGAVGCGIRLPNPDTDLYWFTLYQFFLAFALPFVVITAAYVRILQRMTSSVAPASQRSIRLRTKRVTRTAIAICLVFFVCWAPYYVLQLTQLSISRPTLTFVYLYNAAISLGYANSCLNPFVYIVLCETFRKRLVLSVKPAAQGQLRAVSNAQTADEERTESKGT
Assay: Binding assay for human MCH-1 receptor (radioligand displacement)
Conditions: membranes from CHO-K1 cells expressing human MCH-1 receptor; 1.4 nM [3H]-labeled compound; 60 min at 25° C.; Ki from Cheng Prusoff equation; read-out: MCH1 Ki
Description: Evaluation of the affinity of compounds for the human MCH-1 receptor was accomplished using 4-(3,4,5-tritritiumbenzyloxy)-1-(1-(2-(pyrrolidin-1-yl)ethyl)-1H-indazol-5-yl)pyridin-2(1H)-one and membranes prepared from stable CHO-K1 cells expressing the human MCH-1 receptor obtained from Euroscreen (Batch 1138). Cell membrane homogenates (8.92 μg protein) were incubated for 60 min at 25° C. with 1.4 nM of the [^3H]-labeled compound in the absence or presence of the test compound in 50 mM Tris-HCl buffer, pH 7.4. Nonspecific binding was determined in the presence of 50 μM 1-(5-(4-cyanophenyl)bicyclo[3.1.0]hexan-2-yl)-3-(4-fluoro-3-(trifluoromethyl)phenyl)-1-(3-(4-methylpiperazin-1-yl)propyl)urea. Following incubation, the samples were filtered rapidly under vacuum through Skatron 11731 filters, pre-soaked in 0.5% polyethylenimine, and washed with ice-cold 50 mM Tris-HCl buffer, pH 7.4, (wash setting 9,9,0) using a Skatron cell harvester. The filters were counted for radioactivity in a liquid scintillation counter (Tri-Carb 2100TR, Packard) using a scintillation cocktail (Ultima Gold MV, Perkin Elmer).
The results are expressed as a percent inhibition of the control radioligand specific binding. The IC50 value (concentration causing a half-maximal inhibition of control specific binding) and Hill coefficient (nH) were determined by non-linear regression analysis of the competition curve using Hill equation curve fitting. The inhibition constant (Ki) was calculated from the Cheng Prusoff equation: (Ki=IC50/(1+(L/KD)), where L=concentration of radioligand in the assay, and KD=affinity of the radioligand for the receptor.
`CC1Cc2c(c3ccc(N4CCN(CCc5ccc(Cl)cc5)CC4=O)cc3n2C)CN1.Cl` (centres unmarked) [Example 13, 4-(4-Chlorophenethyl)-1-(3,5-dimethyl-2,3,4,5-tetrahydro-1H-pyrido[4,3-b]indol-7-yl)piperazin-2-one hydrochloride] gave a Ki of 5.3 nM.
For `Cn1c2c(c3ccc(N4CCN(CCc5ccccc5)CC4=O)cc31)CNCC2` [Example 6, 1-(5-Methyl-2,3,4,5-tetrahydro-1H-pyrido[4,3-b]indol-7-yl)-4-phenethylpiperazin-2-one dihydrochloride], the Ki was 11 nM.
Compound `CC1Cc2c(c3ccc(N4CCN(CCc5ccc(F)cc5)CC4=O)cc3n2C)CN1.Cl` (centres unmarked) [Example 12, 1-(3,5-Dimethyl-2,3,4,5-tetrahydro-1H-pyrido[4,3-b]indol-7-yl)-4-(4-fluorophenethyl)piperazin-2-one hydrochloride] has a Ki of 9.7 nM.
In the case of `CN1CCc2c(c3ccc(N4CCN(CCc5ccccc5)CC4=O)cc3n2C)C1` [Example 7, 1-(2,5-Dimethyl-2,3,4,5-tetrahydro-1H-pyrido[4,3-b]indol-7-yl)-4-phenethylpiperazin-2-one hydrochloride], the Ki is reported as 12 nM.
With `Cn1c2c(c3ccc(N4CCN(CCc5ccccn5)CC4=O)cc31)CCNC2` [Example 3, 1-(9-Methyl-2,3,4,9-tetrahydro-1H-pyrido[3,4-b]indol-7-yl)-4-(2-(pyridin-2-yl)ethyl)piperazin-2-one dihydrochloride] the Ki was 43 nM.
With `O=C1CN(CCc2ccccc2)CCN1c1ccc2c3c([nH]c2c1)CCNC3` [Example 9, 4-Phenethyl-1-(2,3,4,5-tetrahydro-1H-pyrido[4,3-b]indol-7-yl)piperazin-2-one dihydrochloride] the Ki was 17 nM.
`Cn1c2c(c3ccc(N4CCN(CCc5ccc(Cl)cc5)CC4=O)cc31)CNCC2` [Example 14, 4-(4-Chlorophenethyl)-1-(5-methyl-2,3,4,5-tetrahydro-1H-pyrido[4,3-b]indol-7-yl)piperazin-2-one dihydrochloride] showed a Ki of 5.8 nM.
Compound `CC1Cc2c(c3ccc(N4CCN(CCc5ccc(F)cc5)CC4=O)cc3n2C)CN1.Cl` (single isomer, unassigned; enantiomer a) [Example 15, 1-(3,5-Dimethyl-2,3,4,5-tetrahydro-1H-pyrido[4,3-b]indol-7-yl)-4-(4-fluorophenethyl)piperazin-2-one hydrochloride (Enantiomer A)] has a Ki of 11 nM.
`CC(=O)N1Cc2c(n(C)c3cc(N4CCN(CCc5ccc(Cl)cc5)CC4=O)ccc23)CC1C` (single isomer, unassigned; enantiomer a) [Example 18, 1-(2-Acetyl-3,5-dimethyl-2,3,4,5-tetrahydro-1H-pyrido[4,3-b]indol-7-yl)-4-(4-chlorophenethyl)piperazin-2-one (Enantiomer A)] showed a Ki of 49 nM.
With `CC1Cc2c(c3ccc(N4CCN(CCc5ccc(Cl)cc5)CC4=O)cc3n2C)CN1` (single isomer, unassigned; enantiomer a) [Example 17, 4-(4-Chlorophenethyl)-1-(3,5-dimethyl-2,3,4,5-tetrahydro-1H-pyrido[4,3-b]indol-7-yl)piperazin-2-one hydrochloride (Enantiomer A)] the Ki was 7.6 nM.
With `CN1CCc2c(n(C)c3cc(N4CCN(CCc5ccccc5)CC4=O)ccc23)C1` [Example 4, 1-(2,9-Dimethyl-2,3,4,9-tetrahydro-1H-pyrido[3,4-b]indol-7-yl)-4-phenethylpiperazin-2-one dihydrochloride] the Ki was 21 nM.
Compound `Cn1c2c(c3ccc(N4CCN(c5ccc(C(F)(F)F)cn5)CC4=O)cc31)CNCC2` [Example 5, 1-(5-Methyl-2,3,4,5-tetrahydro-1H-pyrido[4,3-b]indol-7-yl)-4-(5-(trifluoromethyl)pyridin-2-yl)piperazin-2-one dihydrochloride] has a Ki of 534 nM.
`Cn1c2c(c3ccc(N4CCN(CCc5ccccc5)CC4=O)cc31)CCNC2` [Example 2, 1-(9-Methyl-2,3,4,9-tetrahydro-1H-pyrido[3,4-b]indol-7-yl)-4-phenethylpiperazin-2-one hydrochloride] gave a Ki of 26 nM.
Compound `CC(=O)N1CCc2c(c3ccc(N4CCN(CCc5ccccc5)CC4=O)cc3n2C)C1` [Example 10, 1-(2-Acetyl-5-methyl-2,3,4,5-tetrahydro-1H-pyrido[4,3-b]indol-7-yl)-4-phenethylpiperazin-2-one] has a Ki of 57 nM.
`Cn1c2c(c3ccc(N4CCN(CCc5ccc(F)cc5)CC4=O)cc31)C(C)(C)NCC2` [Example 16, 4-(4-Fluorophenethyl)-1-(1,1,5-trimethyl-2,3,4,5-tetrahydro-1H-pyrido[4,3-b]indol-7-yl)piperazin-2-one dihydrochloride] showed a Ki of 17 nM.
Compound `Cn1c2c(c3ccc(N4CCN(CCc5ccc(F)cc5)CC4=O)cc31)CNCC2` [Example 11, 4-(4-Fluorophenethyl)-1-(5-methyl-2,3,4,5-tetrahydro-1H-pyrido[4,3-b]indol-7-yl)piperazin-2-one dihydrochloride] has a Ki of 7 nM.
With `Cn1c2c(c3ccc(N4CCN(CCc5ccccn5)CC4=O)cc31)CNCC2` [Example 8, 1-(5-Methyl-2,3,4,5-tetrahydro-1H-pyrido[4,3-b]indol-7-yl)-4-(2-(pyridin-2-yl)ethyl)piperazin-2-one dihydrochloride] the Ki was 123 nM.

System: not given
Assay: not given
Conditions: not given
`CC1Cc2c(c3ccc(N4CCN(CCc5ccc(Cl)cc5)CC4=O)cc3n2C)CN1.Cl` (centres unmarked) [Example 13, 4-(4-Chlorophenethyl)-1-(3,5-dimethyl-2,3,4,5-tetrahydro-1H-pyrido[4,3-b]indol-7-yl)piperazin-2-one hydrochloride] showed a melting point of 294 to 300 °C.
Work on `CC1Cc2c(c3ccc(N4CCN(CCc5ccc(F)cc5)CC4=O)cc3n2C)CN1.Cl` (centres unmarked) [Example 12, 1-(3,5-Dimethyl-2,3,4,5-tetrahydro-1H-pyrido[4,3-b]indol-7-yl)-4-(4-fluorophenethyl)piperazin-2-one hydrochloride] yielded a melting point of 280 to 285 °C.
For `CC1Cc2c(c3ccc(N4CCN(CCc5ccc(F)cc5)CC4=O)cc3n2C)CN1.Cl` (single isomer, unassigned; enantiomer a) [Example 15, 1-(3,5-Dimethyl-2,3,4,5-tetrahydro-1H-pyrido[4,3-b]indol-7-yl)-4-(4-fluorophenethyl)piperazin-2-one hydrochloride (Enantiomer A)], the melting point was 295 to 300 °C.
